According to patent EP4603105A1, “PHARMACEUTICAL COMPOSITION CONTAINING CYCLIC COMPOUND HAVING SELECTIVE KRAS INHIBITORY EFFECT AGAINST HRAS AND NRAS” (CHUGAI SEIYAKU KABUSHIKI KAISHA, priority 2022, dated 2024):
Read-outs that look alike come from different tables or passages of the source.

Columns and labels:
[1] = target: GDP-bound KRAS wild-type protein (Homo sapiens, UniProt P01116); assay: Binding to KRAS by surface plasmon resonance (SPR), dissociation constant KD
Summary of the method: (§1)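 Each cycle, GDP-bound biotin-Avi RAS was captured (~100–300 RU), compound concentrations were injected low to high for 75 s each at 100 µL/min, then the chip was regenerated. Buffer: HBS pH 7.4, 10 mM MgCl2, 10 µM GDP, 1 mM DTT, 4% DMSO; 30°C. KD from a 1:1 binding model.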

HRAS wild-type protein = HRAS wild-type protein (Homo sapiens, UniProt P01112); assay: Binding to HRAS by surface plasmon resonance (SPR), KD and KD ratio to KRAS
Chain of HRAS wild-type protein (P01112 whole entry): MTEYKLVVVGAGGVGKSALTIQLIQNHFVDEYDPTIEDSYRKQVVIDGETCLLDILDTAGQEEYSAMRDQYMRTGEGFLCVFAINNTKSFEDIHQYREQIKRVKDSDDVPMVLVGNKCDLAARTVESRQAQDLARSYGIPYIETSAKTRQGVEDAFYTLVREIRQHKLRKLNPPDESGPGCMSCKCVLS
Summary of the method: as §1

[2] = target: GDP-bound NRAS wild-type protein (Homo sapiens, UniProt P01111); assay: Binding to NRAS by surface plasmon resonance (SPR), KD and KD ratio to KRAS
Chain of GDP-bound NRAS wild-type protein (P01111 whole entry): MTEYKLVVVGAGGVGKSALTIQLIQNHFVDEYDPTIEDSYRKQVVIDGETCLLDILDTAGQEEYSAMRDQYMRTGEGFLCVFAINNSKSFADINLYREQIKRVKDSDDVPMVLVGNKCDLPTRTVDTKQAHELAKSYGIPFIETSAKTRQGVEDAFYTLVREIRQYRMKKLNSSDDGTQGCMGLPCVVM
Summary of the method: as §1

[3] = system: human lung cancer strain NCI-H441; assay: NCI-H441 cell proliferation inhibitory activity (CellTiter-Glo, 4 days); assay type: cell-based; conditions: read-out: NCl-H441 IC50
Summary of the method: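 Signal came from […] measured per well once the reagent was added. Beforehand, cells were cultured at 37°C and 5% carbon dioxide on a compound series serially diluted in dimethyl sulfoxide.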

[4] = ratio of KD for HRAS wild-type protein to KD for KRAS
[5] = ratio of KD for GDP-bound NRAS wild-type protein to KD for KRAS
[6] = Single Cycle Kinetics, 1:1 binding model
[7] = ratio of KD with respect to HRAS wild-type protein to KD with respect to KRAS
[8] = ratio of KD with respect to GDP-bound NRAS wild-type protein to KD with respect to KRAS
[9] = 50% proliferation inhibitory concentration, four days

Chain of GDP-bound KRAS wild-type protein (P01116 1-188 isoform P01116-2): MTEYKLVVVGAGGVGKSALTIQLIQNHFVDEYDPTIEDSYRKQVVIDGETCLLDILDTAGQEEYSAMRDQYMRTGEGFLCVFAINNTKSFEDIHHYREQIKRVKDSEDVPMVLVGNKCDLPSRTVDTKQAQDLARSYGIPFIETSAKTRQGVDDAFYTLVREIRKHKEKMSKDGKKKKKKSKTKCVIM

Row | Structure (SMILES) | Kd ([1]; Single Cycle Kinetics) [nM] | HRAS /KRAS (HRAS wild-type protein; [4]) | NRAS /KRAS [2, 5] | IC50 ([3]; NCI-H441 cells, 4 days) [nM] | Kd ([1]; 1:1 binding model) [nM] | Kd [1, 6] [nM] | HRAS /KRAS (HRAS wild-type protein; [7]) | NRAS /KRAS [2, 8] | IC50 [3, 9] [nM]
1 | CCC[C@H]1C(=O)N[C@@H]([C@@H](C)CC)C(=O)N(C)CC(=O)N(C)[C@H]2C/C=C\CCN(C2=O)[C@@H](Cc2ccc(C)cc2)C(=O)N(C)CC(=O)N[C@@H](CCc2cc(F)c(C(F)(F)F)c(F)c2)C(=O)N2CC3(CC3)C[C@H]2C(=O)N(C)C2(CCC2)C(=O)N(C)[C@@H]([C@@H](C)CC)C(=O)N(C)[C@H](C(=O)N(C)C)CC(=O)N1C [PP3331] | 0.1 | A (a compound having 10 or more and less than 20 is denoted as A) | A (a compound having 10 or more and less than 20 is denoted as A) | 7 | – | – | – | – | –
2 | CCO[C@@H]1C[C@H]2C(=O)NC3(CC(C)(C)C3)C(=O)N(C)[C@@H](C3CCCC3)C(=O)N(C)[C@H](C(=O)N(C)C)CC(=O)N[C@@H](CC(C)C)C(=O)N[C@@H]([C@@H](C)CC)C(=O)N(C)CC(=O)N(C)[C@H]3C/C=C\CCN(C3=O)[C@@H](Cc3ccc(C(F)(F)F)cc3)C(=O)N(C)CC(=O)N[C@@H](CCc3cc(F)c(C(F)(F)F)c(F)c3)C(=O)N2C1 [PP3455] | 0.11 | A (a compound having 10 or more and less than 20 is denoted as A) | A (a compound having 10 or more and less than 20 is denoted as A) | 15 | – | – | – | – | –
3 | CCC[C@H]1C(=O)N[C@@H](CC(C)C)C(=O)N2C[C@@H](OC)C[C@H]2C(=O)N(C)[C@H]2C/C=C\CCN(C2=O)[C@@H](Cc2ccc(C)cc2)C(=O)N(C)CC(=O)N[C@@H](CCc2ccc(C(F)(F)F)c(OC)c2)C(=O)N2C[C@H](OCC)C[C@H]2C(=O)NC2(CCC2)C(=O)N(C)[C@@H](C2CCCC2)C(=O)N(C)[C@H](C(=O)N(C)C)CC(=O)N1C [PP2548] | – | B (a compound having 3 or more and less than 10 is denoted as B) | A (a compound having 10 or more and less than 20 is denoted as A) | 1050 | 7.8 | – | – | – | –
4 | CCC[C@H]1C(=O)N[C@@H](C2CCCC2)C(=O)N(C)CC(=O)N(C)[C@H]2C/C=C\CCN(C2=O)[C@@H](Cc2ccc(C(F)(F)F)cc2)C(=O)N(C)CC(=O)N[C@@H](CCc2cc(F)c(C(F)(F)F)c(F)c2)C(=O)N2CC3(CC3)C[C@H]2C(=O)N(C)C2(CCC2)C(=O)N(C)[C@@H]([C@@H](C)CC)C(=O)N(C)[C@H](C(=O)N(C)C)CC(=O)N1C [PP3307] | 2.4 | A (a compound having 10 or more and less than 20 is denoted as A) | AA (a compound having 20 or more is denoted as AA) | 25.4 | – | – | – | – | –
5 | CCC[C@H]1C(=O)N[C@@H]([C@@H](C)CC)C(=O)N(C2CC2)CC(=O)N(C)[C@H]2C/C=C\CCN(C2=O)[C@@H](Cc2ccc(C(F)F)cc2)C(=O)N(C)CC(=O)N[C@@H](CCc2cc(F)c(C(F)(F)F)c(F)c2)C(=O)N2C[C@H](OC(C)C)C[C@H]2C(=O)NC2(CC(C)(C)C2)C(=O)N(C)[C@@H](C(CC)CC)C(=O)N(C)[C@H](C(=O)N(C)C)CC(=O)N1C [PP2529] | – | A (a compound having 10 or more and less than 20 is denoted as A) | AA (a compound having 20 or more is denoted as AA) | 64 | 0.77 | – | – | – | –
6 | CCO[C@@H]1C[C@H]2C(=O)NC3(CC(C)(C)C3)C(=O)N(C)[C@@H](C3CCCC3)C(=O)N(C)[C@H](C(=O)N(C)CC)CC(=O)N(C)[C@@H]([C@@H](C)OC)C(=O)N[C@@H]([C@@H](C)CC)C(=O)N(C)CC(=O)N(C)[C@H]3C/C=C\CCN(C3=O)[C@@H](Cc3ccc(C)cc3)C(=O)N(C)CC(=O)N[C@@H](CCc3ccc(C(F)(F)F)c(OC)c3)C(=O)N2C1 [PP3176] | 0.09 | A (a compound having 10 or more and less than 20 is denoted as A) | A (a compound having 10 or more and less than 20 is denoted as A) | 13.6 | – | – | – | – | –
7 | CC[C@H](C)[C@@H]1NC(=O)[C@H](CC(C)C)N(C)C(=O)C[C@@H](C(=O)N(C)C)N(C)C(=O)[C@H](C2CCCC2)N(C)C(=O)C2(CC(C)(C)C2)NC(=O)[C@@H]2C[C@H](C)CN2C(=O)[C@H](CCc2ccc(C(F)(F)F)c(OC)c2)NC(=O)CN(C)C(=O)[C@H](Cc2ccc(C)cc2)N2CC/C=C\C[C@@H](C2=O)N(C)C(=O)[C@@H]2CCCN2C1=O [PP2409] | – | B (a compound having 3 or more and less than 10 is denoted as B) | A (a compound having 10 or more and less than 20 is denoted as A) | 31.9 | 0.48 | – | – | – | –
8 | CCO[C@@H]1C[C@H]2C(=O)NC3(CCC3)C(=O)N(C)[C@@H](C3CCCC3)C(=O)N(C)[C@H](C(=O)N3CCOCC3)CC(=O)N(C)[C@@H](CC(C)C)C(=O)N[C@@H]([C@@H](C)CC)C(=O)N3CC[C@H]3C(=O)N(C)[C@H]3CC[C@@H](C)CN(C3=O)[C@@H](Cc3ccc(C(F)(F)F)cc3)C(=O)N(C)CC(=O)N[C@@H](CCc3ccc(C(F)(F)F)c(Cl)c3)C(=O)N2C1 [PP1379] | – | – | – | – | – | 0.29 | B (a compound having 3 or more and less than 10 is denoted as B) | A (a compound having 10 or more and less than 20 is denoted as A) | 10.3
9 | CCC[C@H]1C(=O)N[C@@H]([C@@H](C)CC)C(=O)N(C)CC(=O)N(C)[C@H]2C/C=C\CCN(C2=O)[C@@H](Cc2ccc(C)cc2)C(=O)N(C)CC(=O)N[C@@H](CCc2ccc(C(F)(F)F)c(OC)c2)C(=O)N2C[C@H](OCC)C[C@H]2C(=O)NC2(CC(C)(C)C2)C(=O)N(C)[C@@H](CC2CCC2)C(=O)N(C)[C@H](C(=O)N(C)C)CC(=O)N1C [PP2753] | – | B (a compound having 3 or more and less than 10 is denoted as B) | A (a compound having 10 or more and less than 20 is denoted as A) | 52 | 0.97 | – | – | – | –
10 | CC[C@H](C)[C@@H]1NC(=O)[C@H](COC)N(C)C(=O)C[C@@H](C(=O)N(C)C)N(C)C(=O)[C@H](C2CCCC2)N(C)C(=O)C2(CC(C)(C)C2)NC(=O)[C@@H]2C[C@H](C)CN2C(=O)[C@H](CCc2ccc(C(F)(F)F)c(OC)c2)NC(=O)CN(C)C(=O)[C@H](Cc2ccc(C)cc2)N2CC/C=C\C[C@@H](C2=O)N(C)C(=O)[C@@H]2C[C@H](OC)CN2C1=O [PP2390] | – | B (a compound having 3 or more and less than 10 is denoted as B) | A (a compound having 10 or more and less than 20 is denoted as A) | 96.7 | 0.28 | – | – | – | –
11 | CCO[C@@H]1C[C@H]2C(=O)NC3(CCC3)C(=O)N(C)[C@@H](C3CCCC3)C(=O)N(C)[C@H](C(=O)N(C)C)CC(=O)N(C)[C@@H](CC3CC3)C(=O)N[C@@H]([C@@H](C)CC)C(=O)N(C)CC(=O)N(C)[C@H]3C/C=C\CCN(C3=O)[C@@H](Cc3ccc(C)cc3)C(=O)N(C)CC(=O)N[C@@H](CCc3cc(F)c(Cl)c(F)c3)C(=O)N2C1 [PP1484] | – | – | – | – | – | 0.45 | A (a compound having 10 or more and less than 20 is denoted as A) | A (a compound having 10 or more and less than 20 is denoted as A) | 59.3
12 | CCO[C@@H]1C[C@H]2C(=O)NC3(CCCC3)C(=O)N(C)[C@@H](C3CCCC3)C(=O)N(C)[C@H](C(=O)N(C)C)CC(=O)N(C)[C@@H](CC(C)C)C(=O)N[C@@H]([C@@H](C)CC)C(=O)N(C)CC(=O)N(C)[C@H]3C/C(F)=C\CCN(C3=O)[C@@H](Cc3ccc(C)cc3)C(=O)N(C)CC(=O)N[C@@H](CCc3cc(F)c(C(F)(F)F)c(F)c3)C(=O)N2C1 [PP3511] | 0.27 | B (a compound having 3 or more and less than 10 is denoted as B) | B (a compound having 3 or more and less than 10 is denoted as B) | 12.3 | – | – | – | – | –
13 | CCC[C@H]1C(=O)N[C@@H]([C@@H](C)CC)C(=O)N2CCC[C@H]2C(=O)N(C)[C@H]2C/C=C\CCN(C2=O)[C@@H](Cc2ccc(C(F)F)cc2)C(=O)N(C)CC(=O)N[C@@H](CCc2ccc(Cl)c(Cl)c2)C(=O)N2C[C@H](OC3CCC3)C[C@H]2C(=O)NC2(CC(C)(C)C2)C(=O)N(C)[C@@H](C(CC)CC)C(=O)N(C)[C@H](C(=O)N(C)C)CC(=O)N1C [PP2646] | – | A (a compound having 10 or more and less than 20 is denoted as A) | AA (a compound having 20 or more is denoted as AA) | 92.6 | 1.6 | – | – | – | –
14 | CCC[C@H]1C(=O)N[C@@H](C2CCCC2)C(=O)N(C)CC(=O)N(C)[C@H]2C/C=C\CCN(C2=O)[C@@H](Cc2ccc(C(F)F)cc2)C(=O)N(C)CC(=O)N[C@@H](CCc2cc(F)c(C(F)(F)F)c(OC)c2)C(=O)N2C[C@H](OC(C)C)C[C@H]2C(=O)N(C)C2(CCC2)C(=O)N(C)[C@@H](C(CC)CC)C(=O)N(C)[C@H](C(=O)N(C)C)CC(=O)N1C [PP3499] | 0.083 | B (a compound having 3 or more and less than 10 is denoted as B) | A (a compound having 10 or more and less than 20 is denoted as A) | 6.2 | – | – | – | – | –
15 | CCO[C@@H]1C[C@H]2C(=O)NC3(CCC3)C(=O)N(C)[C@@H](C(CC)CC)C(=O)N(C)[C@H](C(=O)N(C)C)CC(=O)N(C)[C@@H](CC3CC3)C(=O)N[C@@H]([C@@H](C)CC)C(=O)N(C)CC(=O)N(C)[C@H]3C/C=C\CCN(C3=O)[C@@H](Cc3ccc(C(F)(F)F)cc3)C(=O)N(C)CC(=O)N[C@@H](CCc3ccc(Cl)c(Cl)c3)C(=O)N2C1 [PP1219] | – | – | – | – | – | 0.35 | A (a compound having 10 or more and less than 20 is denoted as A) | AA (a compound having 20 or more is denoted as AA) | 21.4
